Several values for one entry are separate records, joined by “and”; a condition that tells them apart may be missing. Identical values can stand only once.
Target: T1, human liver Glucokinase (GK) (Homo sapiens, UniProt P35557)
T1 construct: (His)6; made in house; host or cells: Escherichia coli
T1 sequence (P35557 1-466 isoform P35557-2): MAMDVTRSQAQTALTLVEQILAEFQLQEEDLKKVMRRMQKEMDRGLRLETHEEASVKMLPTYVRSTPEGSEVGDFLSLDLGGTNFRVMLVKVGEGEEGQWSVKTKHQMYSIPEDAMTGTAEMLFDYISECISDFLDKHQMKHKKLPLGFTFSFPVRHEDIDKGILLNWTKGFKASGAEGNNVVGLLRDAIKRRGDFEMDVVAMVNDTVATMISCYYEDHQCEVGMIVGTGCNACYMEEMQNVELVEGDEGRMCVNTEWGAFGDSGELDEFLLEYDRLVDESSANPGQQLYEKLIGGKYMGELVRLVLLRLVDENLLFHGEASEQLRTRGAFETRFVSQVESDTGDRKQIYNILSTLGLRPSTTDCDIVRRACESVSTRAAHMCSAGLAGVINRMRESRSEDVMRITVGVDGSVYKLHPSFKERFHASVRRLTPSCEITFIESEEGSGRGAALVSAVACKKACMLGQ
Assay: Glucokinase enzyme assay, Liver GK data
Format: biochemical
Conditions: for EC50: concentration producing 50% activation above vehicle control; for EC100%: concentration producing 100% activation above vehicle control
Text: An enzymatic Glucokinase (GK) assay using purified recombinant human liver/pancreas enzyme was used to evaluate the effects of potential small molecule modulators.
In this assay, GK catalyzes glucose phosphorylation in the presence of ATP. The product of this reaction, glucose-6-phosphate, was then oxidized by an excess of glucose-6-phosphate dehydrogenase to produce gluconate-6-phosphate with concomitant reduction of nicotinamide adenine dinucleotide (NAD). […] Human GK (Liver/Pancreas) was expressed in Escherichia coli as a (His) 6-tagged fusion protein and was purified by metal chelate affinity chromatography. The assay was performed in a final incubation volume of 80 μl in a 96-well clear low UV absorption plates. The incubation mixture consisted of 25 mM HEPES, 2 mM MgSO4, 1 mM dithiothreotol (DTT), 1 mg/ml bovine serum albumin (BSA), 1 mM ATP, 1 mM NAD, and 12 mM glucose, 10 units per ml glucose-6-phosphate dehydrogenase, and +/−300 ng per ml GK. For determination of the affinity (Km) and Vmax, different concentrations of glucose ranging from 0.5 mM to 40 mM were used in the assay; see Grimsby, J., Sarabu, R.; Grippo, J. F.; et. al. Science 2003, 301, 370-373. Production of reduced NAD (Nicotinamide Adenine Dinucleotide) was measured as changes in absorption at 340 nm in 96-well plate reader (Envision model # 2101 Multilabel Plate reader). % Activation @ 50 μM was calculated as the percentage increase in GK activity above the vehicle control with the effective concentration of the compound being 50 μM. EC50% (μM) was calculated as the effective concentration of the compound that produces 50% activation above the vehicle control, and EC100% (μM) was calculated as the effective concentration of the compound that produces 100% activation above the vehicle control.

[1] = compound 50 μM, percentage increase in GK activity above vehicle control, 12 mM glucose

| activation at 50 µM [1] [%] | EC50 | EC100% | % Activation @ 50 μM [1] [%] | Compound |
| --- | --- | --- | --- | --- |
| 180 | 1 µM | 4.1 µM | – | COC(=O)c1ccc(NC(=O)CSC2c3ccccc3C(=O)N2Cc2cccs2)nc1 (centres unmarked) [Compound 34, 6-[2-(3-Oxo-2-thiophen-2-ylmethyl-2,3-dihydro-1H-isoindol-1-ylsulfanyl)-acetylamino]-nicotinic acid methyl ester] |
| 113 | 9.2 µM | – | – | O=C(CSC1c2ccccc2C(=O)N1Cc1ccco1)Nc1nccs1 (centres unmarked) [Compound 32, 2-(2-Furan-2-ylmethyl-3-oxo-2,3-dihydro-1H-isoindol-1-ylsulfanyl)-N-thiazol-2-yl-acetamide] |
| 229 | 2.6 µM | – | – | CN(C)c1ccc(CN2C(=O)c3ccccc3C2SCC(=O)Nc2nccs2)cc1 (centres unmarked) [Compound 33, 2-[2-(4-Dimethylaminobenzyl)-3-oxo-2,3-dihydro-1H-isoindol-1-ylsulfanyl]-N-thiazol-2-yl-acetamide] |
| 199 | 4 µM | 12 µM | – | O=C(CSC1c2ccccc2C(=O)N1Cc1cccs1)Nc1cnccn1 (centres unmarked) [Compound 31, 2-(3-Oxo-2-thiophen-2-ylmethyl-2,3-dihydro-1H-isoindol-1-ylsulfanyl)-N-pyrazin-2-yl-acetamide] |
| 171 | – | 2.9 µM and 3.0 µM | – | COC(=O)c1ccc(NC(=O)CSC2c3ccccc3C(=O)N2Cc2ccccc2)nc1 (centres unmarked) [Compound 35, 6-[2-(2-Benzyl-3-oxo-2,3-dihydro-1H-isoindol-1-ylsulfanyl)-acetylamino]-nicotinic acid methyl ester] |
| 256 | 0.57 µM | 1.57 µM | – | COC(=O)c1ccc(NC(=O)COC2c3ccccc3C(=O)N2Cc2ccccc2)nc1 (centres unmarked) [Compound 37, 6-[2-(2-Benzyl-3-oxo-2,3-dihydro-1H-isoindol-1-yloxy)-acetylamino]-nicotinic acid methyl ester] |
| 143 | 9 µM | – | – | CCOC(=O)Cc1csc(NC(=O)CSC2c3ccccc3C(=O)N2Cc2cccs2)n1 (centres unmarked) [Compound 36, {2-[2-(3-Oxo-2-thiophen-2-ylmethyl-2,3-dihydro-1H-isoindol-1-ylsulfanyl)-acetylamino]-thiazol-4-yl}-acetic acid ethyl ester] |

Continued, compound first:

| Compound | activation at 50 µM [1] [%] | EC50 | EC100% | % Activation @ 50 μM [1] [%] |
| --- | --- | --- | --- | --- |
| O=C(CSC1c2ccccc2C(=O)N1Cc1cccs1)Nc1ncccn1 (centres unmarked) [Compound 16, 2-(3-Oxo-2-thiophen-2-ylmethyl-2,3-dihydro-1H-isoindol-1-ylsulfanyl)-N-pyrimidin-2-yl-acetamide] | 13 | – | – | – |
| O=C(COC1c2ccccc2C(=O)N1Cc1ccccc1)Nc1nccs1 (centres unmarked) [Compound 28, 2-(2-Benzyl-3-oxo-2,3-dihydro-1H-isoindol-1-yloxy)-N-thiazol-2-yl-acetamide] | 73 | 11.3 µM | – | – |
| O=C(COC1c2ccccc2C(=O)N1Cc1ccccc1)Nc1ccccn1 (centres unmarked) [Compound 23, 2-(2-Benzyl-3-oxo-2,3-dihydro-1H-isoindol-1-yloxy)-N-pyridin-2-yl-acetamide] | 164 | 1.76 µM | 8.71 µM | – |
| O=C(CSC1c2ccccc2C(=O)N1Cc1ccccc1)Nc1ccc(C(=O)O)cn1 (centres unmarked) [Compound 19, 6-[2-(2-Benzyl-3-oxo-2,3-dihydro-1H-isoindol-1-ylsulfanyl)-acetyamino]-nicotinic acid] | 146 | 3.2 µM | – | – |
| COc1ccc(CN2C(=O)c3ccccc3C2SCC(=O)Nc2nccs2)cc1 (centres unmarked) [Compound 29, 2-[2-(4-Methoxybenzyl)-3-oxo-2,3-dihydro-1H-isoindol-1-ylsulfanyl]-N-thiazol-2-yl-acetamide] | 156 | 4.4 µM | 17.6 µM | – |
| O=C(CSC1c2ccccc2C(=O)N1Cc1cccs1)Nc1nccs1 (centres unmarked) [Compound 14, 2-(3-Oxo-2-thiophen-2-ylmethyl-2,3-dihydro-1H-isoindol-1-ylsulfanyl)-N-thiazol-2-yl-acetamide] | – | 5 µM | 19.4 µM | – |
| O=C(CNC1c2ccccc2C(=O)N1Cc1ccccc1)Nc1ccccn1 (centres unmarked) [Compound 27, 2-(2-Benzyl-3-oxo-2,3-dihydro-1H-isoindol-1-ylamine)-N-pyridin-2-yl-acetamide] | – | 1.8 µM and 0.9 µM | 4.5 µM and 2.6 µM | 228 |
| O=C(CSC1c2ccccc2C(=O)N1Cc1ccc(Cl)cc1)Nc1nccs1 (centres unmarked) [Compound 30, 2-[2-(4-Chlorobenzyl)-3-oxo-2,3-dihydro-1H-isoindol-1-ylsulfanyl]-N-thiazol-2-yl-acetamide] | 102 | 9.5 µM | – | – |

— patent US7531671B2, “Dihydroisoindolones as allosteric modulators of glucokinase” (Janssen Pharmaceutica N.V., priority 2005, dated 2009)
